Data as given in US20200113854A1, “Composition for Improving Brain Function” (MORINAGA MILK INDUSTRY CO., LTD., priority 2017, published 2020).

Tested on: Alzheimer's disease model mice
Protocol: With reference to NPL 6, Alzheimer's disease model mice were prepared according to the following procedure and the improvement effect of acetic acid was evaluated.
Taking the day when the administration was started as Day 1, amyloid was injected on Day 3. Specifically, an animal was anesthetized by intraperitoneally administering 40 mg/kg of pentobarbital sodium (Tokyo Chemical Industry Co., Ltd.) (amount of liquid administered: 10 mL/kg). After anesthesia, levobupivacaine hydrochloride (Popscaine (registered tradename) 0.25% inj., Maruishi Pharmaceutical Co. Ltd.) was subcutaneously administered (0.1 mL) to the scalp. After anesthesia, hair of a parietal region of the animal was cut and the head was fixed on a brain stereotaxic apparatus.
The scalp was disinfected with ethanol for disinfection and then was cut to expose the cranial bone. […]
An animal was placed in any one arm of the Y-shaped maze and was allowed to freely sleuth in the maze for 8 minutes. The order of the arms that the animal moved during the measurement period was recorded and the number of the movements to arms was counted and taken as a total entry number. […]
A spontaneous alternation action rate was calculated with the following formula. […]

CC(=O)[O-].[Na+] [Sodium acetate, sodium acetate]
Spontaneous alternation action rate (%) (Amyloid β injection group, 150 mM sodium acetate with drinking water, Y-maze 8 minutes, p < 0.01 vs Amyloid β + physiological saline): 67.5%
cognitive function of Alzheimer disease model mice (intake of 150 mM sodium acetate with drinking water): improved a cognitive function
